# Experimental data published in patent publication US7135467B2, “HIV integrase inhibitors” (priority 2003, dated 2006).
# Experiments:
# [1] = target: T1, HIV-integrase (recombinant integrase) (Human immunodeficiency virus type 1 group M subtype B, UniProt P12497); experiment: HIV-Integrase Inhibition Activity (SPA bead strand-transfer assay); format: biochemical; conditions: recombinant integrase on biotin labeled substrate DNA/SPA beads, P33 labeled target DNA; read-out: Activity (IC50 against HIV-integrase)
# T1 construct: Recombinant integrase (0.26 ng) was incubated with the beads
# Procedure, shortened: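 Recombinant integrase (0.26 ng) was bound for 90 min at 37° C to biotin-labelled substrate DNA (5 pmole) on streptavidin SPA beads. After washing, inhibitors and 0.1 fmol P33-labelled target DNA were added, and the reaction was stopped with 10 mM EDTA. Integration was measured as CPM.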
Structure (SMILES),IC50 [1],melting point
"Cc1ccc(CNC(=O)c2nc(N3CCOCC3)n(C)c(=O)c2O)cc1C [Compound 57, N-[(3,4-dimethylphenyl)methyl]-1,6-dihydro-5-hydroxy-1-methyl-2-(4-morpholinyl)-6-oxo-4-pyrimidinecarboxamide]",3 to 100 nM,164 to 166 °C
"Cn1c(N2CCOCC2)nc(C(=O)NCc2ccc(Cl)c(Cl)c2)c(O)c1=O [Compound 53, N-[(3,4-dichlorophenyl)methyl]-1,6-dihydro-5-hydroxy-1-methyl-2-(4-morpholinyl)-6-oxo-4-pyrimidinecarboxamide]",3 to 100 nM,100 to 102 °C
"Cc1ncnn1-c1nc(C(=O)NCc2ccc(F)cc2)c(O)c(=O)n1C [Compound 61, N-[(4-fluorophenyl)methyl]-1,6-dihydro-5-hydroxy-1-methyl-2-(5-methyl-1H-1,2,4-triazol-1-yl)-6-oxo-4-pyrimidinecarboxamide]",100 to 1000 nM,230 °C
"Cn1c(N2CCOCC2)nc(C(=O)NCc2ccc(F)c(Cl)c2)c(O)c1=O [Compound 56, N-[(3-chloro-4-fluorophenyl)methyl]-1,6-dihydro-5-hydroxy-1-methyl-2-(4-morpholinyl)-6-oxo-4-pyrimidinecarboxamide]",3 to 100 nM,170 to 171 °C
"Cn1c(N2CCCCS2(=O)=O)nc(C(=O)Nc2ccc(F)cc2)c(O)c1=O [Compound 50, 2-(1,1-Dioxo-1λ^6-[1,2]thiazinan-2-yl)-5-hydroxy-1-methyl-6-oxo-1,6-dihydro-pyrimidine-4-carboxylic acid (4-fluoro-phenyl)-amide]",≥ 1000 nM,285 to 291 °C (dec.)
"Cc1ccc(CNC(=O)c2nc(N3CCOCC3)n(C)c(=O)c2O)cc1F [Compound 55, N-[(3-fluoro-4-methylphenyl)methyl]-1,6-dihydro-5-hydroxy-1-methyl-2-(4-morpholinyl)-6-oxo-4-pyrimidinecarboxamide]",3 to 100 nM,166 to 167 °C
"Cc1cc(CNC(=O)c2nc(N3CCOCC3)n(C)c(=O)c2O)ccc1F [Compound 54, N-[(4-fluoro-3-methylphenyl)methyl]-1,6-dihydro-5-hydroxy-1-methyl-2-(4-morpholinyl)-6-oxo-4-pyrimidinecarboxamide]",3 to 100 nM,182 to 185 °C
"Cc1ncn(-c2nc(C(=O)NCc3ccc(F)c(C)c3)c(O)c(=O)n2C)n1 [Compound 60, N-[(4-fluoro-3-methylphenyl)methyl]-1,6-dihydro-5-hydroxy-1-methyl-2-(3-methyl-1H-1,2,4-triazol-1-yl)-6-oxo-4-pyrimidinecarboxamide]",3 to 100 nM,204 to 205 °C
"Cc1ncn(-c2nc(C(=O)NCc3ccc(Cl)c(Cl)c3)c(O)c(=O)n2C)n1 [Compound 59, N-[(3,4-dichlorophenyl)methyl]-1,6-dihydro-5-hydroxy-1-methyl-2-(3-methyl-1H-1,2,4-triazol-1-yl)-6-oxo-4-pyrimidinecarboxamide]",3 to 100 nM,188 to 189 °C (dec.)
"Cn1c(N2CCOCC2)nc(C(=O)NCc2ccc(F)cc2)c(O)c1=O [Compound 52, N-[(4-fluorophenyl)methyl]-1,6-dihydro-5-hydroxy-1-methyl-2-(4-morpholinyl)-6-oxo-4-pyrimidinecarboxamide]",3 to 100 nM,197 to 199 °C
"Cn1c(N2CCCCS2(=O)=O)nc(C(=O)NCc2ccc(F)cc2F)c(O)c1=O [Compound 17, N-[(2,4-difluorophenyl)methyl]-1,6-dihydro-5-hydroxy-1-methyl-6-oxo-2-(tetrahydro-1,1-dioxido-2H-1,2-thiazin-2-yl)-4-pyrimidinecarboxamide]",3 to 100 nM,–
"Cn1c(N2CCCCS2(=O)=O)nc(C(=O)NCc2cccs2)c(O)c1=O [Compound 34, 1,6-dihydro-5-hydroxy-1-methyl-6-oxo-2-(tetrahydro-1,1-dioxido-2H-1,2-thiazin-2-yl)-N-(2-thienylmethyl)-4-pyrimidinecarboxamide]",100 to 1000 nM,–
"Cn1c(N2CCCCS2(=O)=O)nc(C(=O)NCCCc2ccc(Cl)c(Cl)c2)c(O)c1=O [Compound 7, N-[3-(3,4-dichlorophenyl)propyl]-1,6-dihydro-5-hydroxy-1-methyl-6-oxo-2-(tetrahydro-1,1-dioxido-2H-1,2-thiazin-2-yl)-4-pyrimidinecarboxamide]",≥ 1000 nM,–
"Cc1cc(CNC(=O)c2nc(N3CCN(C(=O)N4CCNC4=O)CC3)n(C)c(=O)c2O)ccc1F [Compound 86, N-[(4-fluoro-3-methylphenyl)methyl]-1,6-dihydro-5-hydroxy-1-methyl-6-oxo-2-[4-[(2-oxo-1-imidazolidinyl)carbonyl]-1-piperazinyl]-4-pyrimidinecarboxamide]",3 to 100 nM,–
